According to publication PMC5218480 (PLoS ONE, 2017):

System: MV-4-11 cells
Assay: Gene expression microarray analysis (Affymetrix PrimeView) and GSEA
Type: cell-based, human
Parameters: RFU PODN (11730768_x_at) / Fold change /veh PODN (11730768_x_at) / RFU LINC00158 (11744669_a_at) / Fold change /veh LINC00158 (11744669_a_at) / RFU DUSP10 (11751237_a_at) / Fold change /veh DUSP10 (11751237_a_at) / RFU ID3 (11757404_x_at) / Fold change /veh ID3 (11757404_x_at) / RFU PLEKHG5 (11737974_s_at) / Fold change /veh PLEKHG5 (11737974_s_at) / RFU LRRC4B (11730491_at) / Fold change /veh LRRC4B (11730491_at) / RFU GIMAP4 (11747438_a_at) / Fold change /veh GIMAP4 (11747438_a_at) / RFU KRT8 (11758183_x_at) / Fold change /veh KRT8 (11758183_x_at) / RFU CNN1 (11734310_a_at) / Fold change /veh CNN1 (11734310_a_at) / RFU VPS37D (11726825_at) / Fold change /veh VPS37D (11726825_at) / RFU C10orf10 (11716522_x_at) / Fold change /veh C10orf10 (11716522_x_at) / RFU KIR2DL2 /// KIR2DL4 /// KIR2DL5A /// KIR2DL5B /// KIR2DS1 /// KIR2DS2 /// KIR2DS3 /// KIR2DS4 /// KIR3DL3 /// KIR3DL3 /// KIR3DS1 (11738374_at) / Fold change /veh KIR2DL2 /// KIR2DL4 /// KIR2DL5A /// KIR2DL5B /// KIR2DS1 /// KIR2DS2 /// KIR2DS3 /// KIR2DS4 /// KIR3DL3 /// KIR3DL3 /// KIR3DS1 (11738374_at) / RFU C1QL1 (11718748_at) / Fold change /veh C1QL1 (11718748_at) / RFU TMPRSS4 (11747572_a_at) / Fold change /veh TMPRSS4 (11747572_a_at) / RFU HAMP (11756126_x_at) / Fold change /veh HAMP (11756126_x_at) / RFU RNFT2 (11725882_a_at) / Fold change /veh RNFT2 (11725882_a_at) / RFU NR4A2 (11747474_a_at) / Fold change /veh NR4A2 (11747474_a_at) / RFU ABCC12 (11746883_a_at) / Fold change /veh ABCC12 (11746883_a_at) / RFU TMEM136 (11760407_x_at) / Fold change /veh TMEM136 (11760407_x_at) / RFU CLDN22 /// WWC2 (11732394_at) / Fold change /veh CLDN22 /// WWC2 (11732394_at) / RFU HLA-DPB1 (11760878_x_at) / Fold change /veh HLA-DPB1 (11760878_x_at) / RFU SPINT1 (11716480_a_at) / Fold change /veh SPINT1 (11716480_a_at) / RFU GAP43 (11754022_s_at) / Fold change /veh GAP43 (11754022_s_at) / RFU A4GNT (11735810_at) / Fold change /veh A4GNT (11735810_at) / RFU PRB3 (11715151_x_at) / Fold change /veh PRB3 (11715151_x_at) / RFU TUBB4B (11761932_at) / Fold change /veh TUBB4B (11761932_at) / RFU CAPN14 (11732068_a_at) / Fold change /veh CAPN14 (11732068_a_at) / RFU TMCC2 (11721928_a_at) / Fold change /veh TMCC2 (11721928_a_at) / RFU IRGQ (11745062_a_at) / Fold change /veh IRGQ (11745062_a_at) / RFU FAM174B (11720279_a_at) / Fold change /veh FAM174B (11720279_a_at) / RFU TMPRSS4 (11748680_a_at) / Fold change /veh TMPRSS4 (11748680_a_at) / RFU FAM212B (11763350_a_at) / Fold change /veh FAM212B (11763350_a_at) / RFU PLEKHG5 (11743358_a_at) / Fold change /veh PLEKHG5 (11743358_a_at) / RFU ZSCAN30 (11745921_a_at) / Fold change /veh ZSCAN30 (11745921_a_at) / RFU CMKLR1 (11741424_a_at) / Fold change /veh CMKLR1 (11741424_a_at) / RFU LOC101060620 /// MAPK8IP1 (11723275_at) / Fold change /veh LOC101060620 /// MAPK8IP1 (11723275_at) / RFU SPTSSB (11747773_x_at) / Fold change /veh SPTSSB (11747773_x_at) / RFU PRSS12 (11739890_at) / Fold change /veh PRSS12 (11739890_at) / RFU BIN1 (11741810_x_at) / Fold change /veh BIN1 (11741810_x_at) / RFU WNT11 (11732464_a_at) / Fold change /veh WNT11 (11732464_a_at) / RFU C10orf10 (11716521_a_at) / Fold change /veh C10orf10 (11716521_a_at) / RFU C5orf56 (11738089_at) / Fold change /veh C5orf56 (11738089_at) / RFU CYB561 (11721691_x_at) / Fold change /veh CYB561 (11721691_x_at) / RFU ANKRD19P (11752326_a_at) / Fold change /veh ANKRD19P (11752326_a_at) / RFU OR2T12 /// OR2T33 /// OR2T8 (11738714_s_at) / Fold change /veh OR2T12 /// OR2T33 /// OR2T8 (11738714_s_at) / RFU VCAN (11748164_a_at) / Fold change /veh VCAN (11748164_a_at) / RFU JSRP1 (11732532_at) / Fold change /veh JSRP1 (11732532_at) / RFU KRTAP10-11 (11738290_x_at) / Fold change /veh KRTAP10-11 (11738290_x_at) / RFU MYO3A (11730013_a_at) / Fold change /veh MYO3A (11730013_a_at) / RFU EBF3 (11725865_a_at) / Fold change /veh EBF3 (11725865_a_at) / RFU CAMK2N1 (11719241_x_at) / Fold change /veh CAMK2N1 (11719241_x_at) / RFU C5orf56 (11738088_a_at) / Fold change /veh C5orf56 (11738088_a_at) / RFU OLFML3 (11715873_a_at) / Fold change /veh OLFML3 (11715873_a_at) / RFU LOC100653217 /// NTM (11731650_a_at) / Fold change /veh LOC100653217 /// NTM (11731650_a_at) / RFU MAPK11 (11762145_a_at) / Fold change /veh MAPK11 (11762145_a_at) / RFU FIZ1 (11724087_x_at) / Fold change /veh FIZ1 (11724087_x_at) / RFU OASL (11726364_x_at) / Fold change /veh OASL (11726364_x_at) / RFU SOX15 (11748057_x_at) / Fold change /veh SOX15 (11748057_x_at) / RFU CD79A (11719716_a_at) / Fold change /veh CD79A (11719716_a_at) / RFU HIST1H1D (11736915_at) / Fold change /veh HIST1H1D (11736915_at) / RFU CASKIN2 (11723855_a_at) / Fold change /veh CASKIN2 (11723855_a_at) / RFU LOC730098 (11760151_x_at) / Fold change /veh LOC730098 (11760151_x_at) / RFU OR4N2 (11742367_at) / Fold change /veh OR4N2 (11742367_at) / RFU PRRT2 (11749266_a_at) / Fold change /veh PRRT2 (11749266_a_at) / RFU SNX32 (11753110_a_at) / Fold change /veh SNX32 (11753110_a_at) / RFU CDHR5 (11726645_a_at) / Fold change /veh CDHR5 (11726645_a_at) / RFU RCAN1 (11760418_a_at) / Fold change /veh RCAN1 (11760418_a_at) / RFU FAM167A (11723789_a_at) / Fold change /veh FAM167A (11723789_a_at) / RFU FAM26E (11764081_at) / Fold change /veh FAM26E (11764081_at) / RFU ISYNA1 (11749810_s_at) / Fold change /veh ISYNA1 (11749810_s_at) / RFU ACY1 (11761880_at) / Fold change /veh ACY1 (11761880_at) / RFU 11764098_at / Fold change /veh 11764098_at / RFU SAMD14 (11745864_x_at) / Fold change /veh SAMD14 (11745864_x_at) / RFU NPB (11741838_a_at) / Fold change /veh NPB (11741838_a_at) / RFU TMPRSS6 (11731388_a_at) / Fold change /veh TMPRSS6 (11731388_a_at) / RFU KRTAP10-2 (11738614_at) / Fold change /veh KRTAP10-2 (11738614_at) / RFU ARHGAP8 /// PRR5-ARHGAP8 (11727945_x_at) / Fold change /veh ARHGAP8 /// PRR5-ARHGAP8 (11727945_x_at) / RFU KRTAP5-7 /// NADSYN1 (11734609_at) / Fold change /veh KRTAP5-7 /// NADSYN1 (11734609_at) / RFU RASL12 (11751679_a_at) / Fold change /veh RASL12 (11751679_a_at) / RFU CDKN2B (11736163_a_at) / Fold change /veh CDKN2B (11736163_a_at) / RFU PRF1 (11729649_at) / Fold change /veh PRF1 (11729649_at) / RFU, ZNF638 /// ZNF638-IT1 / Fold change vs veh, ZNF638 /// ZNF638-IT1 / RFU, PANK3 / Fold change vs veh, PANK3 / RFU, SH3YL1 / Fold change vs veh, SH3YL1 / RFU, ZEB2 / Fold change vs veh, ZEB2 / RFU, NRIP1 / Fold change vs veh, NRIP1 / RFU, PTTG1IP / Fold change vs veh, PTTG1IP / RFU, CAPN2 / Fold change vs veh, CAPN2 / RFU, MED14 / Fold change vs veh, MED14 / RFU, SNORA58 / Fold change vs veh, SNORA58 / RFU, C1orf63 / Fold change vs veh, C1orf63 / RFU, LRRFIP1 / Fold change vs veh, LRRFIP1 / RFU, NDUFAF7 / Fold change vs veh, NDUFAF7 / RFU, SLC12A2 / Fold change vs veh, SLC12A2 / RFU, IBTK / Fold change vs veh, IBTK / RFU, ESF1 / Fold change vs veh, ESF1 / Fold change vs veh, TMEM50B / RFU, TAOK1 / Fold change vs veh, TAOK1 / RFU, ACBD3 / Fold change vs veh, ACBD3 / RFU, TMA16 / Fold change vs veh, TMA16 / RFU, RWDD3 / Fold change vs veh, RWDD3 / RFU, BCAT1 / Fold change vs veh, BCAT1 / RFU, EDEM3 / Fold change vs veh, EDEM3 / RFU, TMEM33 / Fold change vs veh, TMEM33 / RFU, WDR75 / Fold change vs veh, WDR75 / RFU, AHCTF1 / Fold change vs veh, AHCTF1 / RFU, TFRC / Fold change vs veh, TFRC / RFU, ZDHHC17 / Fold change vs veh, ZDHHC17 / RFU, NOM1 / Fold change vs veh, NOM1 / RFU, ARL8B / Fold change vs veh, ARL8B / RFU, ZBTB11 / Fold change vs veh, ZBTB11 / RFU, TAMM41 / Fold change vs veh, TAMM41 / RFU, KIAA1704 /// LOC100996395 / Fold change vs veh, KIAA1704 /// LOC100996395 / RFU, ING1 / Fold change vs veh, ING1 / RFU, TRMT61B / Fold change vs veh, TRMT61B / RFU, FUBP3 / Fold change vs veh, FUBP3 / RFU, TP53 / Fold change vs veh, TP53 / RFU, TNKS2 / Fold change vs veh, TNKS2 / RFU, ZFP14 / Fold change vs veh, ZFP14 / RFU, ACTR2 / Fold change vs veh, ACTR2 / RFU, PPP3R1 / Fold change vs veh, PPP3R1 / RFU, PIK3R1 / Fold change vs veh, PIK3R1 / RFU, HNRNPA1 / Fold change vs veh, HNRNPA1 / RFU, RNF170 / Fold change vs veh, RNF170 / RFU, ZNF28 / Fold change vs veh, ZNF28 / RFU, RNGTT / Fold change vs veh, RNGTT / RFU, OGT / Fold change vs veh, OGT / RFU, BRD1 / Fold change vs veh, BRD1 / RFU, MARS / Fold change vs veh, MARS / RFU, ZNF655 / Fold change vs veh, ZNF655 / RFU, FAHD1 / Fold change vs veh, FAHD1 / RFU, BDP1 / Fold change vs veh, BDP1 / RFU, LRRCC1 / Fold change vs veh, LRRCC1 / RFU, ARID1A / Fold change vs veh, ARID1A / RFU, ZNF146 / Fold change vs veh, ZNF146 / RFU, ZNF330 / Fold change vs veh, ZNF330 / RFU, GPN3 / Fold change vs veh, GPN3 / RFU, C9orf123 / Fold change vs veh, C9orf123 / RFU, N4BP2L2 / Fold change vs veh, N4BP2L2 / RFU, ARFIP1 / Fold change vs veh, ARFIP1 / RFU, FAM179B / Fold change vs veh, FAM179B / RFU, BCL10 / Fold change vs veh, BCL10 / RFU, UHRF1BP1L / Fold change vs veh, UHRF1BP1L / RFU, BET1 / Fold change vs veh, BET1 / RFU, CNOT2 / Fold change vs veh, CNOT2 / RFU, ZNF268 / Fold change vs veh, ZNF268 / Fold change vs veh, ZNF507 / RFU, DGCR2 / Fold change vs veh, DGCR2 / RFU, WDSUB1 / Fold change vs veh, WDSUB1 / Fold change vs veh, HSP90B1 /// MIR3652 / RFU, ADSS / Fold change vs veh, ADSS / RFU, GK / Fold change vs veh, GK / RFU, ZNF148 / Fold change vs veh, ZNF148 / RFU, TAF9 / Fold change vs veh, TAF9 / RFU, SLC1A5 / Fold change vs veh, SLC1A5 / RFU, SLMO2 / Fold change vs veh, SLMO2 / RFU, ABCC4 / Fold change vs veh, ABCC4 / RFU, LOC101060439 /// RAP1B / Fold change vs veh, LOC101060439 /// RAP1B / RFU, RFX7 / Fold change vs veh, RFX7 / RFU, GTPBP10 / Fold change vs veh, GTPBP10 / RFU, CNEP1R1 / Fold change vs veh, CNEP1R1 / RFU, BIVM-ERCC5 /// ERCC5 / Fold change vs veh, BIVM-ERCC5 /// ERCC5 / RFU, ILF3 / Fold change vs veh, ILF3 / RFU 11762660_at / Fold change /veh 11762660_at / RFU VCAN (11757783_s_at) / Fold change /veh VCAN (11757783_s_at) / RFU DDX43 (11728927_at) / Fold change /veh DDX43 (11728927_at) / RFU KRT8 (11758188_x_at) / Fold change /veh KRT8 (11758188_x_at) / RFU NKD1 (11759106_at) / Fold change /veh NKD1 (11759106_at) / RFU SRD5A1 (11742802_a_at) / Fold change /veh SRD5A1 (11742802_a_at) / RFU TPSAB1 /// TPSB2 (11721975_s_at) / Fold change /veh TPSAB1 /// TPSB2 (11721975_s_at) / RFU GSTM3 (11746129_a_at) / Fold change /veh GSTM3 (11746129_a_at) / RFU IL23R (11737362_x_at) / Fold change /veh IL23R (11737362_x_at) / RFU TMEM51 (11727254_a_at) / Fold change /veh TMEM51 (11727254_a_at) / RFU PIWIL2 (11732686_x_at) / Fold change /veh PIWIL2 (11732686_x_at) / RFU ORM1 (11744905_x_at) / Fold change /veh ORM1 (11744905_x_at) / RFU CCDC152 (11743942_at) / Fold change /veh CCDC152 (11743942_at) / RFU ECM1 (11717891_a_at) / Fold change /veh ECM1 (11717891_a_at) / RFU IL23R (11748794_a_at) / Fold change /veh IL23R (11748794_a_at) / RFU TNFAIP8L3 (11732012_x_at) / Fold change /veh TNFAIP8L3 (11732012_x_at) / RFU MBOAT4 (11741988_at) / Fold change /veh MBOAT4 (11741988_at) / RFU 11764193_at / Fold change /veh 11764193_at / RFU TMEM53 (11763286_at) / Fold change /veh TMEM53 (11763286_at) / RFU MAGEB2 (11727129_at) / Fold change /veh MAGEB2 (11727129_at) / RFU TMEM200A (11744735_a_at) / Fold change /veh TMEM200A (11744735_a_at) / RFU CCDC152 (11751479_a_at) / Fold change /veh CCDC152 (11751479_a_at) / RFU FAM211A (11726209_a_at) / Fold change /veh FAM211A (11726209_a_at) / RFU RGS16 (11746705_a_at) / Fold change /veh RGS16 (11746705_a_at) / RFU VCAN (11755009_s_at) / Fold change /veh VCAN (11755009_s_at) / RFU RHOB (11743442_s_at) / Fold change /veh RHOB (11743442_s_at) / RFU RGS16 (11720943_a_at) / Fold change /veh RGS16 (11720943_a_at) / RFU RGS16 (11720944_at) / Fold change /veh RGS16 (11720944_at) / RFU, VPS4B / Fold change vs veh, VPS4B / RFU, CREB1 / Fold change vs veh, CREB1 / RFU, DNAJC13 / Fold change vs veh, DNAJC13 / RFU, GNAQ / Fold change vs veh, GNAQ / RFU, CDK5R1 / Fold change vs veh, CDK5R1 / RFU, ZRANB3 / Fold change vs veh, ZRANB3 / RFU, CUL4A / Fold change vs veh, CUL4A / RFU, CCNY / Fold change vs veh, CCNY / RFU, UFL1 / Fold change vs veh, UFL1 / RFU, COG3 / Fold change vs veh, COG3 / RFU, DIAPH2 / Fold change vs veh, DIAPH2 / RFU, SKA2 / Fold change vs veh, SKA2 / RFU, AFF3 / Fold change vs veh, AFF3 / RFU, LMF1 / Fold change vs veh, LMF1 / RFU, IPO11 / Fold change vs veh, IPO11 / RFU, DFFB / Fold change vs veh, DFFB / RFU, FOXP1 / Fold change vs veh, FOXP1 / RFU, CARD8 / Fold change vs veh, CARD8 / RFU, STRN3 / Fold change vs veh, STRN3 / RFU, ADK / Fold change vs veh, ADK / RFU, RASSF2 / Fold change vs veh, RASSF2 / RFU, WIPF1 / Fold change vs veh, WIPF1 / RFU, LARP1B / Fold change vs veh, LARP1B / RFU, RASA1 / Fold change vs veh, RASA1 / RFU, RB1 / Fold change vs veh, RB1 / RFU, PPFIA1 / Fold change vs veh, PPFIA1 / RFU, MAT2A / Fold change vs veh, MAT2A / RFU, CCT5 / Fold change vs veh, CCT5 / RFU, WDR92 / Fold change vs veh, WDR92 / RFU, CUX1 / Fold change vs veh, CUX1 / RFU, TTC7A / Fold change vs veh, TTC7A / RFU, TMEM135 / Fold change vs veh, TMEM135 / RFU, DEPTOR / Fold change vs veh, DEPTOR / RFU, CPM / Fold change vs veh, CPM / RFU, DNAJB6 / Fold change vs veh, DNAJB6 / RFU, CACNA2D3 / Fold change vs veh, CACNA2D3 / RFU, DTX4 / Fold change vs veh, DTX4 / RFU, TFCP2 / Fold change vs veh, TFCP2 / RFU, GMCL1 /// GMCL1P1 / Fold change vs veh, GMCL1 /// GMCL1P1 / RFU, AEBP2 / Fold change vs veh, AEBP2 / RFU, SNHG1 /// SNORD22 /// SNORD25 /// SNORD26 /// SNORD27 /// SNORD28 /// SNORD29 /// SNORD31 / Fold change vs veh, SNHG1 /// SNORD22 /// SNORD25 /// SNORD26 /// SNORD27 /// SNORD28 /// SNORD29 /// SNORD31 / Fold change (Aza/veh), C12orf56 (ProbeSet 11735607_a_at) / Fold change (ACY-1035/veh), C12orf56 (ProbeSet 11735607_a_at) / Fold change (Aza/veh), FGFR1OP (ProbeSet 11751329_s_at) / Fold change (ACY-1035/veh), FGFR1OP (ProbeSet 11751329_s_at) / Fold change (Aza/veh), VPS36 (ProbeSet 11739960_a_at) / Fold change (ACY-1035/veh), VPS36 (ProbeSet 11739960_a_at) / RFU SYPL1 (11715823_x_at) / Fold change /veh SYPL1 (11715823_x_at) / RFU IGFBP7 (11715501_s_at) / Fold change /veh IGFBP7 (11715501_s_at) / RFU REEP3 (11722064_at) / Fold change /veh REEP3 (11722064_at) / RFU IGLL1 (11728026_x_at) / Fold change /veh IGLL1 (11728026_x_at): dose or concentration left out as unconfirmed
Conditions: ProbeSet 11741123_x_at; LIST D

Nc1ccc(-c2cccs2)cc1NC(=O)c1ccc2c(c1)cc(C1CC1)n2CCN1CCOCC1 [ACY-1035]
Fold change vs veh, ADK: 0.96
